Assay results: US12209102B2, “Heterocyclic compounds and uses thereof” (Kumquat Biosciences Inc., priority 2022, dated 2025)

How the values were obtained:
K-Ras G12V = target: T1, K-Ras G12V (Homo sapiens, UniProt P01116, G12V); test: HTRF resonance energy transfer assay, K-Ras G12V / SOS1 interaction; type: biochemical; conditions: HTRF assay of Example 5; read-out: IC50 against K-Ras G12V
T1 construct: made in house; host or cells: E. coli BL21 (DE3)
How it was run: (§1)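 GST-tagged K-Ras (WT or mutant) bound to anti-GST-Eu donor was mixed with His-hSOS1 bound to anti-6His-XL665 acceptor in ~5 mM HEPES pH 7.4, 150 mM NaCl, 1 mM DTT, 0.05% BSA, 0.0025% Igepal. HTRF (ex 337, em 620/665 nm) was read after ~10 min or longer. IC50 came from the 665/620 ratio over duplicates from 10 μM to 0.01 μM.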

K-Ras G12S = target: T2, K-Ras G12S (Homo sapiens, UniProt P01116, G12S); test: HTRF resonance energy transfer assay, K-Ras G12S / SOS1 interaction; type: biochemical; conditions: HTRF assay of Example 5; read-out: IC50 against K-Ras G12S
T2 construct: made in house; host or cells: E. coli BL21 (DE3)
How it was run: as §1

A549 cells = test: Ras cellular assay, growth of cells with K-Ras G12S mutation (CellTiter-Glo); type: cell-based; conditions: Homo sapiens, cell growth, Example 9, G12S mutation, read-out: IC50 against A549 cells
Protocol: For example, this assay can be also used to assess a selective growth inhibition of a mutant Ras protein relative to a wildtype, or relative to a different mutant Ras protein.
A549 (ATCC CCL-185) and LS123 (ATCC CCL-255) cell lines comprise a G12S mutation and can be used to assess Ras cellular signaling in vitro, e.g., in response to the compounds herein. A549 culture medium is prepared with RPMI-1640 and 10% heat-inactivated FBS. LS123 culture medium is prepared with RPMI-1640 and 10% heat-inactivated FBS. A CellTiter-Glo (CTG) luminescent based assay (Promega) is used to assess growth of the cells, as a measurement of the ability of the compounds herein to inhibit Ras signaling in the cells. The cells (e.g., 800 per well) are seeded in their respective culture medium in standard tissue culture-treated 384-well format plates (Falcon #08-772-116) or ultra-low attachment surface 384-well format plates (S-Bio #MS-9384WZ). The day after plating, cells are treated with a dilution series (e.g., a 10 point 3-fold dilution series) of the compounds herein (e.g., approximately 40 μL final volume per well). Cell viability can be monitored (e.g., approximately 6 days later) according to the manufacturer's recommended instructions, where the CellTiter-Glo reagent is added (e.g., approximately 10 μL), vigorously mixed, covered, and placed on a plate shaker (e.g., approximately for 20 min) to ensure sufficient cell lysis prior to assessment of luminescent signal. The IC50 values are determined using the four parameter fit. The resulting IC50 value is a measurement of the ability of the compounds herein to reduce cell growth of Ras-driven cells (e.g., tumor cell lines) in vitro and/or in vivo.

K-Ras WT = target: T3, K-Ras WT (Homo sapiens, UniProt P01116); test: HTRF resonance energy transfer assay, K-Ras WT / SOS1 interaction; type: biochemical; conditions: HTRF assay of Example 5; read-out: IC50 against K-Ras WT
T3 construct: made in house; host or cells: E. coli BL21 (DE3)
How it was run: as §1

SW620 cells = test: Ras cellular assay, growth of cells with K-Ras G12V mutation (CellTiter-Glo); type: cell-based; conditions: Homo sapiens, SW-620; cell growth, Example 9, G12V mutation; read-out: IC50 against SW620 cells
How it was run: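 SW620 (K-Ras G12V) cells, e.g. 800/well in RPMI-1640 with 10% heat-inactivated FBS on standard or ultra-low attachment plates, were dosed the day after plating with e.g. a 10-point 3-fold series. Viability by CellTiter-Glo luminescence about 6 days later; IC50 from four-parameter fit.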

K-Ras G12D = target: T4, K-Ras G12D (Homo sapiens, UniProt P01116, G12D); test: HTRF resonance energy transfer assay, K-Ras G12D / SOS1 interaction; type: biochemical; conditions: HTRF assay of Example 5; read-out: IC50 against K-Ras G12D
T4 construct: made in house; host or cells: E. coli BL21 (DE3)
How it was run: as §1

T3 sequence (P01116 1-188 isoform P01116-2): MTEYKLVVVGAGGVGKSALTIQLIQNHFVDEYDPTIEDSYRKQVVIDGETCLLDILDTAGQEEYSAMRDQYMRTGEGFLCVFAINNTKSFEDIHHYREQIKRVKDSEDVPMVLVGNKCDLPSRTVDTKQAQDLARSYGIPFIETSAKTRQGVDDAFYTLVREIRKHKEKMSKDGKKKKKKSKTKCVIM
T2 sequence (P01116 1-188 isoform P01116-2 G12S): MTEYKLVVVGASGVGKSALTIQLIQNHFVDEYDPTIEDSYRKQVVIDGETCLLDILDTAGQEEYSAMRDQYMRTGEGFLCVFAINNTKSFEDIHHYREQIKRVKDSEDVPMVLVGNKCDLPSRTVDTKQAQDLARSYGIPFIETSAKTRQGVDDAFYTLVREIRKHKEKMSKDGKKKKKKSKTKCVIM
T4 sequence (P01116 1-188 isoform P01116-2 G12D): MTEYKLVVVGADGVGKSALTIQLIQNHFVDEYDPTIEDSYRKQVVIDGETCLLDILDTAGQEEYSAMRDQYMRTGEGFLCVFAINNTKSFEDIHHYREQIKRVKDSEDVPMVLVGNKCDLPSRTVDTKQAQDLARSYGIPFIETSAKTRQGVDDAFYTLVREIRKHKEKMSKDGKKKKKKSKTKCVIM
T1 sequence (P01116 1-188 isoform P01116-2 G12V): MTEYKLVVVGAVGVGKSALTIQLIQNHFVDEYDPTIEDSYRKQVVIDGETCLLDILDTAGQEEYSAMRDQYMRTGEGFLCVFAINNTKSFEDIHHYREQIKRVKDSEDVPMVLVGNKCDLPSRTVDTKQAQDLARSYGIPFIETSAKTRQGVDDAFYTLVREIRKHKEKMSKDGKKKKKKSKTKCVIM

IC50 (K-Ras G12V) | IC50 (K-Ras G12S) | IC50 (A549 cells) | IC50 (K-Ras WT) | IC50 (SW620 cells) | IC50 (K-Ras G12D) | Compound
< 100 nM | < 100 nM | < 5000 nM | < 100 nM | < 5000 nM | – | N#Cc1c(N)sc2c(F)ccc(-c3c(Cl)c4c5c(nc(OC[C@@]67CCCN6C[C@H](F)C7)nc5c3F)N(C3CCC(=C(F)F)C3)CCO4)c12 (stereo partly drawn) [Compound 605, 2-amino-4-(8-chloro-4-(3-(difluoromethylene)cyclopentyl)-10-fluoro-2-(((2R,7aS)-2-fluorotetrahydro-1H-pyrrolizin-7a(5H)-yl)methoxy)-5,6-dihydro-4H-[1,4]oxazepino[5,6,7-de]quinazolin-9-yl)-7-fluorobenzo[b]thiophene-3-carbonitrile]
< 100 nM | < 100 nM | < 5000 nM | < 100 nM | < 5000 nM | – | CCC1CC(N2CCOc3c(Cl)c(-c4ccc(F)c5sc(N)c(C#N)c45)c(F)c4nc(OC[C@@]56CCCN5C[C@H](F)C6)nc2c34)CCO1 (stereo partly drawn) [Compound 903, 2-amino-4-(8-chloro-4-(2-ethyltetrahydro-2H-pyran-4-yl)-10-fluoro-2-(((2R,7aS)-2-fluorotetrahydro-1H-pyrrolizin-7a(5H)-yl)methoxy)-5,6-dihydro-4H-[1,4]oxazepino[5,6,7-de]quinazolin-9-yl)-7-fluorobenzo[b]thiophene-3-carbonitrile]
< 100 nM | < 100 nM | < 5000 nM | < 100 nM | < 5000 nM | – | N#Cc1c(N)sc2c(F)ccc(-c3c(Cl)c4c5c(nc(OC[C@@]67CCCN6C[C@H](F)C7)nc5c3F)N(C3CCC(COC(F)F)C3)CCO4)c12 (stereo partly drawn) [Compound 933, 2-amino-4-(8-chloro-4-(3-((difluoromethoxy)methyl)cyclopentyl)-10-fluoro-2-(((2R,7aS)-2-fluorotetrahydro-1H-pyrrolizin-7a(5H)-yl)methoxy)-5,6-dihydro-4H-[1,4]oxazepino[5,6,7-de]quinazolin-9-yl)-7-fluorobenzo[b]thiophene-3-carbonitrile]
< 100 nM | – | < 5000 nM | < 100 nM | < 5000 nM | – | N#Cc1c(N)sc2c(F)ccc(-c3c(Cl)c4c5c(nc(OC[C@@]67CCCN6C[C@H](F)C7)nc5c3F)N(C3CC5(C3)CC5(F)F)CCO4)c12 (stereo partly drawn) [Compound 1004, 2-amino-4-(8-chloro-4-(1,1-difluorospiro[2.3]hexan-5-yl)-10-fluoro-2-(((2R,7aS)-2-fluorotetrahydro-1H-pyrrolizin-7a(5H)-yl)methoxy)-5,6-dihydro-4H-[1,4]oxazepino[5,6,7-de]quinazolin-9-yl)-7-fluorobenzo[b]thiophene-3-carbonitrile]

The remaining lines, values behind:

Compound | IC50 (K-Ras G12V) | IC50 (K-Ras G12S) | IC50 (A549 cells) | IC50 (K-Ras WT) | IC50 (SW620 cells) | IC50 (K-Ras G12D)
N#Cc1c(N)sc2c(F)ccc(-c3c(Cl)c4c5c(nc(OC[C@@]67CCCN6C[C@H](F)C7)nc5c3F)N(C3CCCN(C=O)CC3)CCO4)c12 (stereo partly drawn) [Compound 601, 2-amino-4-(8-chloro-10-fluoro-2-(((2R,7aS)-2-fluorotetrahydro-1H-pyrrolizin-7a(5H)-yl)methoxy)-4-(1-formylazepan-4-yl)-5,6-dihydro-4H-[1,4]oxazepino[5,6,7-de]quinazolin-9-yl)-7-fluorobenzo[b]thiophene-3-carbonitrile] | < 100 nM | < 100 nM | < 5000 nM | < 100 nM | < 5000 nM | < 100 nM
CC1(C)CCC(N2CCOc3c(Cl)c(-c4ccc(F)c5sc(N)c(C#N)c45)c(F)c4nc(OC[C@@]56CCCN5C[C@H](F)C6)nc2c34)CO1 (stereo partly drawn) [Compound 603, 2-amino-4-(8-chloro-4-(6,6-dimethyltetrahydro-2H-pyran-3-yl)-10-fluoro-2-(((2R,7aS)-2-fluorotetrahydro-1H-pyrrolizin-7a(5H)-yl)methoxy)-5,6-dihydro-4H-[1,4]oxazepino[5,6,7-de]quinazolin-9-yl)-7-fluorobenzo[b]thiophene-3-carbonitrile] | < 100 nM | < 100 nM | < 5000 nM | < 100 nM | < 5000 nM | < 100 nM
CC(=O)NC1CC(N2CCOc3c(Cl)c(-c4ccc(F)c5sc(N)c(C#N)c45)c(F)c4nc(OC[C@@]56CCCN5C[C@H](F)C6)nc2c34)C1 (stereo partly drawn) [Compound 623, N-(3-(9-(2-amino-3-cyano-7-fluorobenzo[b]thiophen-4-yl)-8-chloro-10-fluoro-2-(((2R,7aS)-2-fluorotetrahydro-1H-pyrrolizin-7a(5H)-yl)methoxy)-5,6-dihydro-4H-[1,4]oxazepino[5,6,7-de]quinazolin-4-yl)cyclobutyl)acetamide] | < 100 nM | < 100 nM | < 5000 nM | < 100 nM | < 5000 nM | < 100 nM
N#CCC(=O)N1CCC(N2CCOc3c(Cl)c(-c4ccc(F)c5sc(N)c(C#N)c45)c(F)c4nc(OC[C@@]56CCCN5C[C@H](F)C6)nc2c34)C1 (stereo partly drawn) [Compound 626, 2-amino-4-(8-chloro-4-(1-(2-cyanoacetyl)pyrrolidin-3-yl)-10-fluoro-2-(((2R,7aS)-2-fluorotetrahydro-1H-pyrrolizin-7a(5H)-yl)methoxy)-5,6-dihydro-4H-[1,4]oxazepino[5,6,7-de]quinazolin-9-yl)-7-fluorobenzo[b]thiophene-3-carbonitrile] | < 100 nM | < 100 nM | < 5000 nM | < 100 nM | < 5000 nM | < 100 nM
C[C@H]1CN(C23CC(C2)C3)c2nc(OC[C@@]34CCCN3C[C@H](F)C4)nc3c(F)c(-c4ccc(F)c5sc(N)c(C#N)c45)c(Cl)c(c23)O1 [Compound 687, 2-amino-4-((6S)-4-(bicyclo[1.1.1]pentan-1-yl)-8-chloro-10-fluoro-2-(((2R,7aS)-2-fluorotetrahydro-1H-pyrrolizin-7a(5H)-yl)methoxy)-6-methyl-5,6-dihydro-4H-[1,4]oxazepino[5,6,7-de]quinazolin-9-yl)-7-fluorobenzo[b]thiophene-3-carbonitrile] | – | < 100 nM | < 5000 nM | < 100 nM | < 5000 nM | < 100 nM
N#Cc1c(N)sc2c(F)ccc(-c3c(Cl)c4c5c(nc(OC[C@@]67CCCN6C[C@H](F)C7)nc5c3F)N(C3CC(NC(=O)C(F)Cl)C3)CCO4)c12 (stereo partly drawn) [Compound 724, N-(3-(9-(2-amino-3-cyano-7-fluorobenzo[b]thiophen-4-yl)-8-chloro-10-fluoro-2-(((2R,7aS)-2-fluorotetrahydro-1H-pyrrolizin-7a(5H)-yl)methoxy)-5,6-dihydro-4H-[1,4]oxazepino[5,6,7-de]quinazolin-4-yl)cyclobutyl)-2-chloro-2-fluoroacetamide] | – | < 100 nM | < 5000 nM | < 100 nM | < 5000 nM | < 100 nM
C[C@H](Oc1nc2c3c(c(Cl)c(-c4ccc(F)c5sc(N)c(C#N)c45)c(F)c3n1)OCCN2C1CCOCC1)[C@@H]1CCCN1C [Compound 904, 2-amino-4-(8-chloro-10-fluoro-2-((S)-1-((S)-1-methylpyrrolidin-2-yl)ethoxy)-4-(tetrahydro-2H-pyran-4-yl)-5,6-dihydro-4H-[1,4]oxazepino[5,6,7-de]quinazolin-9-yl)-7-fluorobenzo[b]thiophene-3-carbonitrile] | < 100 nM | < 100 nM | < 5000 nM | < 100 nM | < 5000 nM | –
N#Cc1c(N)sc2c(F)ccc(-c3c(Cl)c4c5c(nc(OC[C@@]67CCCN6C[C@H](F)C7)nc5c3F)N(C3CC5(CCNC5)C3)CCO4)c12 (stereo partly drawn) [Compound 1112, 2-amino-4-(8-chloro-10-fluoro-2-(((2R,7aS)-2-fluorotetrahydro-1H-pyrrolizin-7a(5H)-yl)methoxy)-4-(6-azaspiro[3.4]octan-2-yl)-5,6-dihydro-4H-[1,4]oxazepino[5,6,7-de]quinazolin-9-yl)-7-fluorobenzo[b]thiophene-3-carbonitrile] | < 100 nM | < 100 nM | < 5000 nM | < 100 nM | – | < 100 nM
